Measurements published in US5929236A, “2-substituted morpholine and thiomorpholine derivatives as GABA-B antagonists” (Schering Corporation, priority 1995, dated 1999).

What was measured:
[1] = target: T1, GABAB receptors (Rattus norvegicus, UniProt Q9Z0U4); test: GABAB Receptor Binding Assay ([3H]GABA, rat brain synaptosomes); conditions: 5 nM [3H]GABA, rat brain synaptosomes, 20° C., 30 min
T1 construct: Rat brain synaptosomes are used as a source of GABAB receptors; from tissue; host or cells: rat brain synaptosomes
Protocol: GABAB Receptor Binding Assay
The percentage inhibition of GABA binding to GABAB receptors is measured by tritiated GABA ([^3 H]GABA) determination of the degree of binding by scintillation counting. Rat brain synaptosomes are used as a source of GABAB receptors. An incubation medium is prepared from the following: 20 μg/mL of the compound to be tested as a solution in 1% DMSO/water; 5 nM [^3 H]GABA; 50 mM Tris buffer (pH 7.5); and 2.5 mM CaCl2. The medium also contains 40 μM isoguvacine to selectively block binding to GABAA receptors. The synaptosome (200 μg/mL) is added to the incubation medium and incubated for 30 minutes at 20° C. The incubation is terminated by filtration and counted to determine the percentage inhibition of [^3 H]-GABA binding. The results are reported as IC50 values for those compounds inhibiting [^3 H]-GABA binding by >50%.

[2] = system: seizure in rats induced by GBL; test: Prevention of seizure in rats induced by GBL; format: in vivo, rat; conditions: 100 mg/kg GBL (ip)
Protocol: Animal Models for Absence Seizures
A. Snead, Eur. J. Pharmacol., 213, 343-349 (1992), teaches a pharmacological model for testing the effectiveness of GABAB antagonists in preventing seizures induced by intra-peritoneal (ip) administration of either γ-butyrolactone (GBL) or pentylenetetrazole (PTZ) to rats. The animal is treated with the test compound, then monitored after being subjected to a dose of either GBL or PTZ sufficient to induce seizures.

[3] = system: seizure in lethargic (lh/lh) mice; test: Prevention of seizure in lethargic (lh/lh) mice; format: in vivo
Source text: B. Hosford, et al., Science, 257, 398-401 (Jul. 17, 1992), teaches a pharmacological model for testing the effectiveness of GABAB antagonists as anticonvulsants for the treatment of absence seizures by administering the compound to be tested to lethargic (lh/lh) mice, a mutant strain with spontaneous seizures.

[4] = system: Respiratory Depressant Effect of Baclofen; test: Inhibition of Respiratory Depressant Effect of Baclofen; format: in vivo, guinea pig; conditions: for % Inhibition: mean ± SEM; for ED50: Cavia porcellus
Protocol: (§1) Animal Model for Respiratory Depression:
Place unanesthetized guinea pigs in a head-out plethysmograph and expose to a CO2 enriched gas mixture (10% CO2, 21% O2, 69% N2) for 10 min., (see Danko, et al., J. Pharm. Methods, 19, 165-173 (1988)). Plethysmograph pressure is detected with a transducer connected to a chart recorder. Minute ventilation is calculated as the product of tidal volume and respiratory frequency. The compound to be tested is administered orally, subcutaneously (sc), intraperitoneally (ip) or via an intracerebroventricular route (icv). Baclofen (3 mg/kg, sc) was given 30 min before exposure to the CO2 enriched gas. […] A 40 or 30 min. preteratment is used for the subcutaneous and intraperitoneal routes, respectively. The vehicle for oral, sc or ip administration is saline. For icv administration, single icv cannulae are placed in the lateral ventricle of anesthetized guinea pigs, (see McLeod, et al., Eur. J. Pharmacol., 209, 141-142 (1988)). The animals are allowed to recover approximately one week prior to use for ventilation experiments. The vehicle for icv administration is artificial cerebrospinal fluid (CSF).

[5] = system: Respiratory Depressant Effect of Baclofen; test: Reversal of the Respiratory Depressant Effect of Baclofen via icv Administration; format: in vivo, guinea pig; conditions: 50 μg in 10 μl of vehicle, icv, 5 min before measurement of ventilation; mean ± SEM
Protocol: as §1
Place unanesthetized guinea pigs in a head-out plethysmograph and expose to a CO2 enriched gas mixture (10% CO2, 21% O2, 69% N2) for 10 min., (see Danko, et al., J. Pharm. Methods, 19, 165-173 (1988)). Plethysmograph pressure is detected with a transducer connected to a chart recorder. Minute ventilation is calculated as the product of tidal volume and respiratory frequency. The compound to be tested is administered orally, subcutaneously (sc), intraperitoneally (ip) or via an intracerebroventricular route (icv). Baclofen (3 mg/kg, sc) was given 30 min before exposure to the CO2 enriched gas. When given by the oral route, the compounds is administered 1, 3, 5 or 7 h before exposure to CO2 enriched gas. A 40 or 30 min. preteratment is used for the subcutaneous and intraperitoneal routes, respectively. The vehicle for oral, sc or ip administration is saline. For icv administration, single icv cannulae are placed in the lateral ventricle of anesthetized guinea pigs, (see McLeod, et al., Eur. J. Pharmacol., 209, 141-142 (1988)). The animals are allowed to recover approximately one week prior to use for ventilation experiments. The vehicle for icv administration is artificial cerebrospinal fluid (CSF).

T1 sequence (Q9Z0U4 17-960 limits assumed): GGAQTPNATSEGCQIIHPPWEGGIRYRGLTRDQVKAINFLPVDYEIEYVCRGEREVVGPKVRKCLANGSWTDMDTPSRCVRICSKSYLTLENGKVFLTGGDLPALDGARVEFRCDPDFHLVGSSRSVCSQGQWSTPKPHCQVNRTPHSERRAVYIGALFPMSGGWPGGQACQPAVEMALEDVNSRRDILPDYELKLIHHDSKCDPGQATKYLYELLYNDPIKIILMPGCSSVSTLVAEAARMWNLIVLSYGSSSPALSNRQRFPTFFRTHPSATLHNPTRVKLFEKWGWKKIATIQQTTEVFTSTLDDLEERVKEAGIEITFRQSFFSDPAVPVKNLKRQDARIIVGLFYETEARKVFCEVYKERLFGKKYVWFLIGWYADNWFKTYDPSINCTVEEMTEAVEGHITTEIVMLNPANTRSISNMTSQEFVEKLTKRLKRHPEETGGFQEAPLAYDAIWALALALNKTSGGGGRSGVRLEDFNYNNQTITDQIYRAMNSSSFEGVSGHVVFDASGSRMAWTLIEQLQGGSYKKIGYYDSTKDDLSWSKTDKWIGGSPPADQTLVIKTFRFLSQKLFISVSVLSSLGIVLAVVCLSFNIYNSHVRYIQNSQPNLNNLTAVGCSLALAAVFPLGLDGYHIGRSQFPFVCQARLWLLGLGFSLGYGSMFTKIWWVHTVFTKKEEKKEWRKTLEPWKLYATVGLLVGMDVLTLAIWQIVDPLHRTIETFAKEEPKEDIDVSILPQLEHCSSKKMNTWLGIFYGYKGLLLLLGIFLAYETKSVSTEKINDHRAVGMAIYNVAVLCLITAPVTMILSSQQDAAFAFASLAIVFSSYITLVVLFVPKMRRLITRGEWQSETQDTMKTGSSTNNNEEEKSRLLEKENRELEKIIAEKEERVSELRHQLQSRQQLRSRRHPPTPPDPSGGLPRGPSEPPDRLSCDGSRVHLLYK
T1 sequence (O88871 41-940 partner): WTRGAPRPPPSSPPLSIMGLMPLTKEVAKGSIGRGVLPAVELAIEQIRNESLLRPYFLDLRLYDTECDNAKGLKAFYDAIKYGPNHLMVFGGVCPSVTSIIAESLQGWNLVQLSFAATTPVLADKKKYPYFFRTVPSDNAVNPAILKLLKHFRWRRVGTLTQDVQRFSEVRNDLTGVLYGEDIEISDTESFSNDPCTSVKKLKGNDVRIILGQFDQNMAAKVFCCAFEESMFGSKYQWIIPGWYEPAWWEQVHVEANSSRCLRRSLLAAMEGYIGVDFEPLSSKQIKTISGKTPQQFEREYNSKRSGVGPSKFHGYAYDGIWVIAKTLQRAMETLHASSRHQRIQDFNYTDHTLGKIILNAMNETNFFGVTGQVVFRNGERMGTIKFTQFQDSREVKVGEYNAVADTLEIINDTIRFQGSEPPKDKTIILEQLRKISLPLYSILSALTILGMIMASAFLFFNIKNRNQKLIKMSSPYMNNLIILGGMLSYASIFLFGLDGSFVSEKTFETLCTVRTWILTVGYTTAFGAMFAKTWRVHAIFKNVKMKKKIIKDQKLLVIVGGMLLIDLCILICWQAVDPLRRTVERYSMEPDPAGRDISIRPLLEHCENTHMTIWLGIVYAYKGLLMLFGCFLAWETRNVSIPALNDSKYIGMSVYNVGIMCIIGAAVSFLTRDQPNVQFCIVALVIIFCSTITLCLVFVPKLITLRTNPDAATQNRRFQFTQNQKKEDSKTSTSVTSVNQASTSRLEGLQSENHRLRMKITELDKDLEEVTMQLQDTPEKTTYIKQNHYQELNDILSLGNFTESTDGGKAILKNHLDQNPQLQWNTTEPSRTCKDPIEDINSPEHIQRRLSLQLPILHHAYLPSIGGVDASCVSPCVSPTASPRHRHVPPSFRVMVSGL

## CC1(C)COC(CC(=O)O)CN1 (single isomer, unassigned) [Example 6A]
[1]
  IC50: 2 µM
[2]; 0.75 mg/kg, 20 min
  SWD duration: 970 s
[2]; 0.75 mg/kg, 40 min
  SWD duration: 1150 s
[2]; 0.75 mg/kg, 60 min
  SWD duration: 500 s
[2]; 0.75 mg/kg, 80 min
  SWD duration: 280 s
[2]; 0.75 mg/kg, 100 min
  SWD duration: 50 s
[2]; 0.75 mg/kg, 120 min
  SWD duration: 0 s
[2]; 1.5 mg/kg, 20 min
  SWD duration: 560 s
[2]; 1.5 mg/kg, 40 min
  SWD duration: 540 s
[2]; 1.5 mg/kg, 60 min
  SWD duration: 0 s
[2]; 1.5 mg/kg, 80 min
  SWD duration: 0 s
[2]; 1.5 mg/kg, 100 min
  SWD duration: 0 s
[2]; 1.5 mg/kg, 120 min
  SWD duration: 0 s
[2]; 3.0 mg/kg, 20 min
  SWD duration: 0 s
[2]; 3.0 mg/kg, 40 min
  SWD duration: 0 s
[2]; 3.0 mg/kg, 60 min
  SWD duration: 0 s
[2]; 3.0 mg/kg, 80 min
  SWD duration: 0 s
[2]; 3.0 mg/kg, 100 min
  SWD duration: 0 s
[2]; 3.0 mg/kg, 120 min
  SWD duration: 0 s
[3]; 1.0 mg/kg ip
  Seizures (% vehicle) in 120 min.: 85%
[3]; 3.0 mg/kg ip
  Seizures (% vehicle) in 120 min.: 60%
[3]; 10 mg/kg ip
  Seizures (% vehicle) in 120 min.: 15%
[3]; 30 mg/kg ip
  Seizures (% vehicle) in 120 min.: 5%
[4]; 0.3 mg/kg ip
  % Inhibition: 39 ± 10%
[4]; 0.3 mg/kg sc
  % Inhibition: 27 ± 6%
[4]; 1.0 mg/kg ip
  % Inhibition: 32 ± 7%
[4]; 1.0 mg/kg oral, 60 min prior to baclofen
  % Inhibition: 36 ± 13%
[4]; 1.0 mg/kg sc
  % Inhibition: 66 ± 7%
[4]; 3.0 mg/kg ip
  % Inhibition: 59 ± 7%
[4]; 3.0 mg/kg oral, 60 min prior to baclofen
  % Inhibition: 51 ± 13%
[4]; 3.0 mg/kg sc
  % Inhibition: 97 ± 25%
[4]; 10 mg/kg ip
  % Inhibition: 100 ± 9%
[4]; 10 mg/kg oral, 60 min prior to baclofen
  % Inhibition: 68 ± 13%
[4]; 10 mg/kg sc
  % Inhibition: 99 ± 11%
[4]; 30 mg/kg oral, 60 min prior to baclofen
  % Inhibition: 78 ± 29%
[4]; ip
  ED50: 1.9 mg/kg
[4]; sc
  ED50: 0.63 mg/kg
[4]; oral, 60 min prior to baclofen
  ED50: 3 mg/kg
[5]
  % Inhibition: 99 ± 23%
